Measurements published in the supplement of paper PMC11061612.

Key:
[1] = tested on: MOG-G-CCM (Low Grade Glioma); experiment: Bliss excess, mean over the matrix (fraction); higher = more synergy
Summary of the method: (§1)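 Cell lines in DMEM/F12 or RPMI with 10% FBS were plated in 1536-well plates, held 24 hours at 37°C, 5% CO2, then given two-drug dose matrices for 72 hours (DMSO typically 0.2%). Viability was read by CellTiter-Glo 2.0 luminescence and scaled as inhibition from 0 (vehicle wells) to 1 (blank wells). Combination Emax is the second-highest inhibition in the matrix; Bliss excess is observed combination effect minus expected EA + EB − EA·EB, EA and EB being single-agent effects.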

NCI-H2731 (Mesothelioma) = experiment: as above
Summary of the method: as §1

[2] = tested on: SK-GT-4 (Esophageal Adenocarcinoma); experiment: as above
Summary of the method: as §1

[3] = tested on: H9 (T-Cell Non-Hodgkin's Lymphoma); experiment: as above
Summary of the method: as §1

[4] = tested on: NCI-H929 (Plasma Cell Myeloma); experiment: as above
Summary of the method: as §1

[5] = tested on: PC-3 (Prostate Carcinoma); experiment: as above
Summary of the method: as §1

[6] = tested on: CHSA8926 (Chondrosarcoma); experiment: as above
Summary of the method: as §1

[7] = tested on: KY821 (Acute Myeloid Leukemia); experiment: as above
Summary of the method: as §1

[8] = tested on: HCC1187 (Breast Carcinoma); experiment: as above
Summary of the method: as §1

[9] = tested on: KU812 (Chronic Myelogenous Leukemia); experiment: as above
Summary of the method: as §1

[10] = tested on: NCI-H520 (Squamous Cell Lung Carcinoma); experiment: as above
Summary of the method: as §1

[11] = tested on: SU-DHL-5 (B-Cell Non-Hodgkin's Lymphoma); experiment: as above
Summary of the method: as §1

[12] = tested on: NCI-H3122 (Lung Adenocarcinoma); experiment: as above
Summary of the method: as §1

[13] = tested on: JHH-4 (Hepatocellular Carcinoma); experiment: as above
Summary of the method: as §1

[14] = tested on: T-T (Esophageal Squamous Cell Carcinoma); experiment: as above
Summary of the method: as §1

SJSA-1 (Osteosarcoma) = experiment: as above
Summary of the method: as §1

[15] = tested on: IM-95 (Gastric Carcinoma); experiment: as above
Summary of the method: as §1

RD (Rhabdomyosarcoma) = experiment: as above
Summary of the method: as §1

[16] = tested on: NCI-H661 (Non-Small Cell Lung Carcinoma); experiment: as above
Summary of the method: as §1

[17] = tested on: PC-3 (Prostate Carcinoma); experiment: combination Emax (second highest fraction inhibited in the dose matrix, 72 h); higher = more inhibition; extreme values may be limits of the assay
Summary of the method: as §1
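Wherever Bliss excess, mean over the matrix is given: after 72 h of two-drug dosing.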

Row | Structure (SMILES) | Bliss excess [1] | Bliss excess (NCI-H2731 (Mesothelioma)) | Bliss excess [2] | Bliss excess [3] | Bliss excess [4] | Bliss excess [5] | Bliss excess [6] | Bliss excess [7] | Bliss excess [8] | Bliss excess [9] | Bliss excess [10] | Bliss excess [11] | Bliss excess [12] | Bliss excess [13] | Bliss excess [14] | Bliss excess (SJSA-1 (Osteosarcoma)) | Bliss excess [15] | Bliss excess (RD (Rhabdomyosarcoma)) | Bliss excess [16] | combination Emax [17]
1 | CCN(CCO)CCCOc1ccc2c(Nc3cc(CC(=O)Nc4cccc(F)c4)[nH]n3)ncnc2c1 [AZD2811] + O=C(c1cc(Cc2n[nH]c(=O)c3ccccc23)ccc1F)N1CCN(C(=O)C2CC2)CC1 [Olaparib] (first compound max 1 µM, 7x7, partner max 10 µM) | -0.041 | 0.0001 | 0.0123 | -0.0965 | 0.0305 | -0.0231 | 0.0124 | 0.0512 | -0.0668 | -0.0189 | 0.041 | -0.0466 | 0.0018 | -0.0293 | -0.0073 | -0.0232 | 0.0087 | 0.0106 | -0.0062 | 0.179
2 | CCc1c2c(nc3ccc(O)cc13)-c1cc3c(c(=O)n1C2)COC(=O)[C@]3(O)CC [SN-38] + CN(C)CCCOc1ccc(-c2ccc3ncc4c(c3c2)n(C2CCOCC2)c(=O)n4C)cn1 [AZD0156] (first compound max 0.3 µM, 7x7, partner max 1 µM) | 0.0143 | -0.0407 | -0.12 | 0.116 | -0.089 | -0.0306 | -0.0646 | 0.055 | -0.0347 | -0.027 | 0.0044 | 0.0712 | 0.0427 | 0.0443 | -0.0151 | -0.0469 | 0.0208 | -0.0329 | 0.0286 | 0.688
3 | COc1cccc(OCCCN)c1-c1cc(Nc2cnc(C#N)cn2)n[nH]1 [Prexasertib] + O=C(c1cc(Cc2n[nH]c(=O)c3ccccc23)ccc1F)N1CCN(C(=O)C2CC2)CC1 [Olaparib] (first compound max 1 µM, 7x7, partner max 10 µM) | -0.053 | -0.0228 | -0.0984 | -0.0088 | -0.0638 | -0.0355 | -0.0147 | -0.0266 | -0.0164 | -0.0947 | -0.0756 | -0.0097 | 0.0161 | 0.0296 | 0.0186 | -0.0639 | -0.0102 | -0.0444 | -0.0373 | 0.43
4 | CC(=O)c1c(C)c2cnc(Nc3ccc(N4CCNCC4)cn3)nc2n(C2CCCC2)c1=O [Palbociclib] + CC1(C)CCC(CN2CCN(c3ccc(C(=O)NS(=O)(=O)c4ccc(NCC5CCOCC5)c([N+](=O)[O-])c4)c(Oc4cnc5[nH]ccc5c4)c3)CC2)=C(c2ccc(Cl)cc2)C1 [Venetoclax] (first compound max 10 µM, 7x7, partner max 1 µM) | -0.0493 | -0.0002 | -0.0437 | -0.0394 | -0.112 | -0.0582 | -0.0232 | 0.0485 | -0.0079 | -0.0401 | -0.0209 | -0.0201 | -0.0335 | -0.0003 | -0.027 | -0.0295 | -0.0399 | -0.0486 | -0.0593 | 0.1
5 | NC1(C(=O)N[C@@H](CCO)c2ccc(Cl)cc2)CCN(c2ncnc3[nH]ccc23)CC1 [Capivasertib] + COc1nnc2ccc(N3CCC(c4ccc(OCCN5CCN(C)C(=O)[C@H]5C)cc4)CC3)nn12 [AZD5153] (first compound max 10 µM, 7x7, partner max 1 µM) | 0.0151 | -0.0012 | -0.0204 | -0.0047 | -0.008 | -0.0242 | 0.0617 | -0.0351 | 0.0491 | -0.05 | 0.0497 | -0.0179 | -0.0131 | 0.0028 | -0.0365 | -0.0184 | 0.073 | 0.0116 | 0.0687 | 0.45
6 | CN(C)CCCOc1ccc(-c2ccc3ncc4c(c3c2)n(C2CCOCC2)c(=O)n4C)cn1 [AZD0156] + C=CCn1c(=O)c2cnc(Nc3ccc(N4CCN(C)CC4)cc3)nc2n1-c1cccc(C(C)(C)O)n1 [AZD1775] (first compound max 1 µM, partner max 1 µM) | -0.0193 | -0.0898 | -0.0676 | -0.0167 | -0.0464 | -0.0501 | -0.106 | -0.0505 | -0.0117 | -0.0046 | -0.0692 | -0.0016 | -0.0352 | -0.0065 | -0.0122 | -0.0674 | -0.0366 | -0.0377 | -0.0615 | 0.224
7 | CN(C)CCCOc1ccc(-c2ccc3ncc4c(c3c2)n(C2CCOCC2)c(=O)n4C)cn1 [AZD0156] + O=C(c1cc(Cc2n[nH]c(=O)c3ccccc23)ccc1F)N1CCN(C(=O)C2CC2)CC1 [Olaparib] (first compound max 3 µM, partner max 3 µM) | 0.0005 | 0.0068 | 0.0611 | 0.0284 | 0.016 | -0.0088 | -0.0022 | 0.0829 | 0.0813 | 0.264 | 0.0671 | 0.197 | -0.0062 | -0.0166 | 0.122 | 0.017 | -0.0093 | 0.0333 | 0.0145 | 0.199
8 | Cc1c2c(nn1C)CSCc1cc(n(C)n1)CSc1cc(c3ccccc3c1)OCCCc1c(C(=O)O)n(C)c3c-2c(Cl)ccc13 [AZD5991] + C=CCn1c(=O)c2cnc(Nc3ccc(N4CCN(C)CC4)cc3)nc2n1-c1cccc(C(C)(C)O)n1 [AZD1775] (first compound max 1 µM, partner max 1 µM) | -0.0287 | -0.0336 | -0.0617 | -0.0337 | 0.0023 | 0.0111 | -0.0155 | -0.0329 | -0.0342 | -0.0284 | 0.0221 | 0.0028 | -0.058 | 0.0308 | 0.0282 | 0.0115 | 0.0201 | 0.04 | 0.0429 | 0.245
9 | NC1(C(=O)N[C@@H](CCO)c2ccc(Cl)cc2)CCN(c2ncnc3[nH]ccc23)CC1 [Capivasertib] + CC(=O)c1c(C)c2cnc(Nc3ccc(N4CCNCC4)cn3)nc2n(C2CCCC2)c1=O [Palbociclib] (first compound max 10 µM, 7x7, partner max 10 µM) | -0.0389 | -0.0008 | 0.0029 | -0.0671 | -0.0066 | 0.0068 | -0.0171 | -0.0078 | 0.0279 | 0.0662 | 0.0018 | 0.0287 | 0.0266 | -0.0242 | -0.0221 | -0.0445 | 0.0182 | -0.0333 | 0.0204 | 0.376
10 | CN(CCO)CC[C@H](CSc1ccccc1)Nc1ccc(S(=O)(=O)NC(=O)c2ccc(N3CCC([C@@H](O)c4ccccc4-c4ccc(Cl)cc4)CC3)cc2)cc1S(=O)(=O)C(F)(F)F [AZD4320] + Cn1cnc2c(F)c(Nc3ccc(Br)cc3Cl)c(C(=O)NOCCO)cc21 [Selumetinib] (first compound max 1 µM, 7x7, partner max 3 µM) | -0.136 | -0.0124 | 0.0128 | -0.0113 | 0.0597 | -0.0148 | -0.0256 | 0.0262 | 0.0264 | 0.0375 | -0.0205 | 0.0368 | 0.0162 | -0.0091 | 0.0564 | 0.0413 | 0.0132 | 0.0308 | 0.0414 | 0.352
11 | C=CCn1c(=O)c2cnc(Nc3ccc(N4CCN(C)CC4)cc3)nc2n1-c1cccc(C(C)(C)O)n1 [AZD1775] + C[C@@H]1COCCN1C2=NC(=NC(=C2)C3(CC3)[S@](=N)(=O)C)C4=C5C=CNC5=NC=C4 [AZD6738] (first compound max 1 µM, partner max 10 µM) | 0.0195 | 0.0444 | 0.0046 | 0.0607 | -0.0042 | -0.0049 | -0.0268 | 0.0358 | 0.0558 | 0.0459 | -0.0133 | 0.0446 | 0.0165 | 0.0007 | 0.0089 | 0.0047 | 0.0804 | 0.0125 | 0.0157 | 0.498
12 | C[C@@H](c1ccc2nccn2c1)n1nnc2ncc(-c3cnn(C)c3)nc21 [Savolitinib] + CC1(C)CCC(CN2CCN(c3ccc(C(=O)NS(=O)(=O)c4ccc(NCC5CCOCC5)c([N+](=O)[O-])c4)c(Oc4cnc5[nH]ccc5c4)c3)CC2)=C(c2ccc(Cl)cc2)C1 [Venetoclax] (first compound max 1 µM, 7x7, partner max 1 µM) | -0.0448 | -0.0423 | -0.0732 | -0.0453 | 0.0439 | -0.0806 | 0.0023 | -0.0139 | -0.0494 | -0.0303 | -0.0333 | -0.0977 | -0.0394 | 0.0006 | 0.011 | -0.0775 | -0.0368 | -0.0598 | -0.0651 | 0.121
